Data published in US7491827B2, “Aryl sulfonamides useful as inhibitors of chemokine receptor activity” (Millennium Pharmaceuticals, Inc., priority 2003, dated 2009).
pKi: −log10 of the molar value.

target: T1, cloned human CCR8 receptor stably expressed in L1.2 cells (Homo sapiens, UniProt P51685); assay: whole cell binding screen: inhibition of biotinylated human I309 binding to CCR8 (FMAT 8100 HTS); details: L1.2/hCCR8 cells, biotinylated human I-309, 10 point concentration response starting at 10 μM; read-out: Ki of compounds to inhibit I-309 binding to CCR8
T1 construct: expressed in transfected cells
T1 sequence (P51685 whole entry): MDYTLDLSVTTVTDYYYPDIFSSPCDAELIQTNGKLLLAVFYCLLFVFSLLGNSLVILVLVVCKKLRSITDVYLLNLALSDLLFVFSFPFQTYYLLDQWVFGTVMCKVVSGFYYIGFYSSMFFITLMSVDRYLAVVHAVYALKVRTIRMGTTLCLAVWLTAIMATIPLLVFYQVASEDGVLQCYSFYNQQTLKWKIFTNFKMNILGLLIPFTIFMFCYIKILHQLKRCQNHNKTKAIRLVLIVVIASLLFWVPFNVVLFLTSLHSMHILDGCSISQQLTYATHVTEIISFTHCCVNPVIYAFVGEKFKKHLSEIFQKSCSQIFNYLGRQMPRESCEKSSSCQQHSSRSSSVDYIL
Method in brief: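 L1.2 murine pre-B cells stably expressing human CCR8 (4.0×10^5 cells/mL) in HBSS/HEPES/fatty-acid-free BSA/azide buffer were mixed with biotinylated human I309 and compounds for 0.5 h, read by FMAT fluorescence. 10-point curves from 10 μM final; percent inhibition normalized to no-inhibitor and 100 nM unlabeled I309 controls.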

| Compound | pKi |
| --- | --- |
| CCOC(=O)N1[C@@H]2CC[C@H]1C[C@@H](NS(=O)(=O)c1ccc(NC(=O)c3ccccc3C)c3ccccc13)C2 [Compound C-10, cis-3-[4-(2-Methyl-benzoylamino)-naphthalene-1-sulfonylamino]-8-aza-bicyclo[3.2.1]octane-8-carboxylic acid ethyl ester] | > 6.30 |
| Cc1ccccc1C(=O)Nc1ccc(S(=O)(=O)NC2(C)CCN(C(=O)OC(C)C)CC2)c2ccccc12 [Compound C-26, 4-Methyl-4-[4-(2-methyl-benzoylaminno)-naphthalene-1-sulfonylamino]-piperidine-1-carboxylic acid isopropyl ester] | > 6.30 |
| Cc1ccccc1C(=O)Nc1ccc(S(=O)(=O)NC2CCN(C(=O)OC(C)(C)C)CC2)c2c1CCC2 [Compound H-66, 4-[7-(2-Methyl-benzoylamino)-indane-4-sulfonylamino]-piperidine-1-carboxylic acid tert-butyl ester] | > 6.00 |
| CN1CCC(C(=O)Nc2ccc(S(=O)(=O)NC3CCNCC3)c3ccccc23)CC1 [Compound D-17, 1-Methyl-piperidine-4-carboxylic acid [4-(piperidin-4-ylsulfamoyl)-naphthalen-1-yl]-amide] | > 4.52 |
| CN1CCCC(C(=O)Nc2ccc(S(=O)(=O)NC3CCNCC3)c3ccccc23)C1 [Compound D-22, 1-Methyl-piperidine-3-carboxylic acid [4-(piperidin-4-ylsulfamoyl)-naphthalen-1-yl]-amide] | > 4.52 |
| CCOC(=O)N1CC[C@H](NS(=O)(=O)c2ccc(NC(=O)c3ccccc3C)c3ccccc23)[C@@H](CO)C1 (racemic) [Compound C-82, (±)-(trans)-3—Hydroxymethyl-4-[4-(2-methyl-benzoylamino)-naphthalene-1-sulfonylamino]-piperidine-1-carboxylic acid ethyl ester] | > 6.30 |
| CC(C)NC(=O)N1CCC(NS(=O)(=O)c2ccc(NC(=O)c3ccccc3)c3ccccc23)CC1 [Compound C-2, 4-(4-Benzoylamino-naphthalene-1-sulfonylamino)-piperidine-1-carboxylic acid isopropyl amide] | > 6.30 |
| O=C(Nc1ccc(S(=O)(=O)NC2CCNCC2)c2ccccc12)C1CCCC1 [Compound D-11, Cyclopentanecarboxylic acid [4-(piperidin-4-ylsulfamoyl)-naphthalen-1-yl]-amide] | > 4.52 |
| CCOC(=O)N1CC[C@H](NS(=O)(=O)c2ccc(NC(=O)c3ccccc3C)c3ccccc23)[C@@H](C)C1 (racemic) [Compound C-17, (±)-trans-3-Methyl-4-[4-(2-methyl-benzoylamino)-naphthalene-1-sulfonylaminno]-piperidine-1-carboxylic acid ethyl ester] | > 6.30 |
| CCCC(=O)N1CCC(NS(=O)(=O)c2ccc(NC(=O)c3ccccc3Cl)c3ccccc23)CC1 [Compound C-105, N-[4-(1-Butyryl-piperidin-4-ylsulfamoyl)-naphthalen-1-yl]-2-chloro-benzamide] | > 6.30 |
| Cc1ccccc1C(=O)Nc1ccc(S(=O)(=O)N[C@H]2CCN(C(=O)C3CCCN3)C[C@H]2C)c2cccnc12 (stereo in doubt) [Compound J-38, (3R, 4S)-2-Methyl-N-{5-[3-methyl-1-((R)pyrrolidine-2-carbonyl)-piperidin-4-ylsulfamoyl]-quinolin-8-yl}-benzamide] | > 6.30 |
| Cc1ccccc1C(=O)Nc1ccc(S(=O)(=O)N[C@H]2CCN(C(=O)OC(C)C)C[C@@H]2C)c2ccccc12 (racemic) [Compound C-18, (±)-trans-3-methyl-4-[4-(2-methyl-benzoylalino)-naphthalene-1-sulfonylamino]-piperidine-1-carboxylic acid isopropyl ester] | > 6.30 |
| Cc1ccccc1C(=O)Nc1ccc(S(=O)(=O)NC2CCN(C(=O)C(C)C)CC2)c2c1CCCC2 [Compound E-12, N-[4-(1-Isobutyryl-piperidin-4-ylsulfamoyl)-5,6,7,8-tetrahydro-naphthalen-1-yl]-2-methyl-benzamide] | > 6.30 |
